Test results as given in the Kinase Knowledgebase extract (Sharma et al. 2016).

Biological target: EGFR (human) (UniProt P00533)
Conditions: mda-mb-231

Chain of EGFR (human) (P00533 whole entry, looked up): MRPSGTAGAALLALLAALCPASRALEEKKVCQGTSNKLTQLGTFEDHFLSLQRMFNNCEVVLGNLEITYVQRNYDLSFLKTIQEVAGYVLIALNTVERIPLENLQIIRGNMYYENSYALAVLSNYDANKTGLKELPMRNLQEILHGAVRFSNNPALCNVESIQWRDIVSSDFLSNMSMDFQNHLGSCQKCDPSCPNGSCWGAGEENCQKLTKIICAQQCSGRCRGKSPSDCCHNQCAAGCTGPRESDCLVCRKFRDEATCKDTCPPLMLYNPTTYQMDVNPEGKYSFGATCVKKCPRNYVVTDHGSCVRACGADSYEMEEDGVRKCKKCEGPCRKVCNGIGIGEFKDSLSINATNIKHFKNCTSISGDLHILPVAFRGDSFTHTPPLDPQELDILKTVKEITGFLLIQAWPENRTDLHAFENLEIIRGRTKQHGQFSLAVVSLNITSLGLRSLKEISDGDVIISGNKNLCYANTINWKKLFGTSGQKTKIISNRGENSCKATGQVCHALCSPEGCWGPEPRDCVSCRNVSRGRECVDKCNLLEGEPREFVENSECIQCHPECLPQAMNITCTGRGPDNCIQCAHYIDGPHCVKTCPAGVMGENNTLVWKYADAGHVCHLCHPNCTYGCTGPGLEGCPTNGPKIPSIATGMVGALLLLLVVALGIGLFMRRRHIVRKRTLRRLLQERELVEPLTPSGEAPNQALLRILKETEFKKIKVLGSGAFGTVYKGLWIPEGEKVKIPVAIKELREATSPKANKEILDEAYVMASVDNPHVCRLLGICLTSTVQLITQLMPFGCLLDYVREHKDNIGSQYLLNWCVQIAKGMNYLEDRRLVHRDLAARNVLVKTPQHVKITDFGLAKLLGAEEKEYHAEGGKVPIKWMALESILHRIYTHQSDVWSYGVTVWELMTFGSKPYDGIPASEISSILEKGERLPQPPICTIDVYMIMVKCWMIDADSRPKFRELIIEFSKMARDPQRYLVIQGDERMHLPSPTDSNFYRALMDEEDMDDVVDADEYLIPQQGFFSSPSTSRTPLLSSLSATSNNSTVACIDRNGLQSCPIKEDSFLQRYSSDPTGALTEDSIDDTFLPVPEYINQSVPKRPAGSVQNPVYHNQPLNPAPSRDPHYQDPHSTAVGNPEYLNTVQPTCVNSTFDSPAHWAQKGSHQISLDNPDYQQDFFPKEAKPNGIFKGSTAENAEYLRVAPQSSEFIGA

IC50	Structure (SMILES)
28.4 µM	C/C(O)=C(/C#N)C(=O)Nc1ccc(OC(F)(F)F)cc1
97 µM	Cc1oncc1C(=O)Nc1ccc(C(F)(F)F)cc1
